Assay: Safety and tolerability: adverse events, dose-limiting toxicities, MTD, RP2D (Phase 1A/1B)
Type: in vivo
Experimental: This was an open-label, Phase 1, dose-escalation/dose-expansion study, conducted across six study centres in Australia. The dose-escalation phase evaluated twice-daily (BID) and once-daily (QD) dosing, and the dose-expansion phase evaluated the BID RP2D from the dose-escalation phase and food effects (Fig. 1). The food-effects cohort comprised two sequences: fast followed by fed (sequence 1) and fed followed by fast (sequence 2). […] The decision to proceed to the next dose cohort was determined by the Safety Monitoring Committee and followed a modified 3 + 3 escalation scheme. […] When ≥2 DLTs occurred in the first 23 days of a dose level, the next lower dose level was declared the MTD. Safety was monitored and DLTs were assessed in all dose cohorts. […] The food-effects cohort investigated the effects of food on the PK of pamiparib in patients with advanced solid tumours.
The QD dosing regimen was added as an amendment to the protocol with the purpose of exploring the feasibility of a more convenient regimen.
Safety and tolerability were assessed throughout the study by monitoring adverse events (AEs), serious AEs, clinical laboratory measurements and physical examinations. Adverse events were categorised according to their severity (National Cancer Institute Common Terminology Criteria for Adverse Events v4.03) and relationship to the study treatment.

C[C@]12CCCN1CC1=NNC(=O)c3cc(F)cc4[nH]c2c1c34 [pamiparib]
Abdominal pain, AE of any grade (2.5 mg BID (n = 4)): 1 (25.0) n (%)
Anaemia, AE of any grade (2.5 mg BID (n = 4)): 1 (25.0) n (%)
Ascites, AE of any grade (2.5 mg BID (n = 4)): 1 (25.0) n (%)
Back pain, AE of any grade (2.5 mg BID (n = 4)): 0 (0.0) n (%)
Constipation, AE of any grade (2.5 mg BID (n = 4)): 1 (25.0) n (%)
Cough, AE of any grade (2.5 mg BID (n = 4)): 0 (0.0) n (%)
Decreased appetite, AE of any grade (2.5 mg BID (n = 4)): 0 (0.0) n (%)
Diarrhoea, AE of any grade (2.5 mg BID (n = 4)): 0 (0.0) n (%)
Dose-limiting toxicity (2.5 mg BID (n = 4)): 0 (0.0) n (%)
Dyspnoea, AE of any grade (2.5 mg BID (n = 4)): 0 (0.0) n (%)
Fatigue, AE of any grade (2.5 mg BID (n = 4)): 1 (25.0) n (%)
Headache, AE of any grade (2.5 mg BID (n = 4)): 0 (0.0) n (%)
Hypoalbuminemia, AE of any grade (2.5 mg BID (n = 4)): 1 (25.0) n (%)
Hypomagnesemia, AE of any grade (2.5 mg BID (n = 4)): 0 (0.0) n (%)
Hypophosphatemia, AE of any grade (2.5 mg BID (n = 4)): 0 (0.0) n (%)
Increased AST, AE of any grade (2.5 mg BID (n = 4)): 0 (0.0) n (%)
Muscle spasms, AE of any grade (2.5 mg BID (n = 4)): 1 (25.0) n (%)
Nausea, AE of any grade (2.5 mg BID (n = 4)): 3 (75.0) n (%)
Neutropenia, AE of any grade (2.5 mg BID (n = 4)): 0 (0.0) n (%)
Non-cardiac chest pain, AE of any grade (2.5 mg BID (n = 4)): 0 (0.0) n (%)
Pain in extremity, AE of any grade (2.5 mg BID (n = 4)): 0 (0.0) n (%)
Peripheral sensory neuropathy, AE of any grade (2.5 mg BID (n = 4)): 0 (0.0) n (%)
Pleural effusion, AE of any grade (2.5 mg BID (n = 4)): 0 (0.0) n (%)
Pyrexia, AE of any grade (2.5 mg BID (n = 4)): 1 (25.0) n (%)
Treatment-emergent AE (2.5 mg BID (n = 4)): 4 (100.0) n (%)
Treatment-emergent AE: Grade 3 or higher (2.5 mg BID (n = 4)): 3 (75.0) n (%)
Treatment-emergent AE: Leading to death (2.5 mg BID (n = 4)): 0 (0.0) n (%)
Treatment-emergent AE: Leading to dose interruption (2.5 mg BID (n = 4)): 1 (25.0) n (%)
Treatment-emergent AE: Leading to dose modification (2.5 mg BID (n = 4)): 1 (25.0) n (%)
Treatment-emergent AE: Leading to dose reduction (2.5 mg BID (n = 4)): 0 (0.0) n (%)
Treatment-emergent AE: Leading to treatment discontinuation (2.5 mg BID (n = 4)): 0 (0.0) n (%)
Treatment-emergent AE: Serious (2.5 mg BID (n = 4)): 3 (75.0) n (%)
Treatment-related AE (2.5 mg BID (n = 4)): 3 (75.0) n (%)
Treatment-related AE: Grade 3 or higher (2.5 mg BID (n = 4)): 0 (0.0) n (%)
Treatment-related AE: Leading to death (2.5 mg BID (n = 4)): 0 (0.0) n (%)
Treatment-related AE: Leading to dose interruption (2.5 mg BID (n = 4)): 0 (0.0) n (%)
Treatment-related AE: Leading to dose modification (2.5 mg BID (n = 4)): 0 (0.0) n (%)
Treatment-related AE: Leading to dose reduction (2.5 mg BID (n = 4)): 0 (0.0) n (%)
Treatment-related AE: Leading to treatment discontinuation (2.5 mg BID (n = 4)): 0 (0.0) n (%)
Treatment-related AE: Serious (2.5 mg BID (n = 4)): 0 (0.0) n (%)
Upper respiratory tract infection, AE of any grade (2.5 mg BID (n = 4)): 1 (25.0) n (%)
Urinary tract infection, AE of any grade (2.5 mg BID (n = 4)): 0 (0.0) n (%)
Vomiting, AE of any grade (2.5 mg BID (n = 4)): 1 (25.0) n (%)
Abdominal pain, AE of any grade (5.0 mg BID (n = 3)): 0 (0.0) n (%)
Anaemia, AE of any grade (5.0 mg BID (n = 3)): 0 (0.0) n (%)
Ascites, AE of any grade (5.0 mg BID (n = 3)): 0 (0.0) n (%)
Back pain, AE of any grade (5.0 mg BID (n = 3)): 0 (0.0) n (%)
Constipation, AE of any grade (5.0 mg BID (n = 3)): 0 (0.0) n (%)
Cough, AE of any grade (5.0 mg BID (n = 3)): 0 (0.0) n (%)
Decreased appetite, AE of any grade (5.0 mg BID (n = 3)): 0 (0.0) n (%)
Diarrhoea, AE of any grade (5.0 mg BID (n = 3)): 1 (33.3) n (%)
Dose-limiting toxicity (5.0 mg BID (n = 3)): 0 (0.0) n (%)
Dyspnoea, AE of any grade (5.0 mg BID (n = 3)): 0 (0.0) n (%)
Fatigue, AE of any grade (5.0 mg BID (n = 3)): 1 (33.3) n (%)
Headache, AE of any grade (5.0 mg BID (n = 3)): 1 (33.3) n (%)
Hypoalbuminemia, AE of any grade (5.0 mg BID (n = 3)): 0 (0.0) n (%)
Hypomagnesemia, AE of any grade (5.0 mg BID (n = 3)): 0 (0.0) n (%)
Hypophosphatemia, AE of any grade (5.0 mg BID (n = 3)): 0 (0.0) n (%)
Increased AST, AE of any grade (5.0 mg BID (n = 3)): 0 (0.0) n (%)
Muscle spasms, AE of any grade (5.0 mg BID (n = 3)): 1 (33.3) n (%)
Nausea, AE of any grade (5.0 mg BID (n = 3)): 0 (0.0) n (%)
Neutropenia, AE of any grade (5.0 mg BID (n = 3)): 0 (0.0) n (%)
Non-cardiac chest pain, AE of any grade (5.0 mg BID (n = 3)): 0 (0.0) n (%)
Pain in extremity, AE of any grade (5.0 mg BID (n = 3)): 0 (0.0) n (%)
Peripheral sensory neuropathy, AE of any grade (5.0 mg BID (n = 3)): 1 (33.3) n (%)
